Measurements as given in patent US20150175655A1 (priority 2012, published 2015).

Target: T1, NS3 genotype 1b protease (Hepatitis C virus genotype 1b, UniProt Q9WMX2, E1202G)
T1 construct: Purified NS3 protease domain (amino acids 1-181) of the genotype 1b and 3a virus were generated as above; K3 hexahistidine tag (N); rTEV protease cleavage site (N); made in house; host or cells: E. coli BL21AI, pET28 vector p28-N6H-Tev-NS3(181)1b
Assay: Ki determination, NS3 protease genotype 1b (fluorogenic depsipeptide substrate)
Assay type: biochemical
Details: not given
Description: The coding sequence of the genotype 1b (con-1 strain) HCV NS3 protease domain was PCR amplified from a plasmid encoding the I389luc-ubi-neo/NS3-3′/ET replicon (Reblikon, Mainz, Germany). The 5′-PCR primer was designed to encode an N-terminal K3 hexahistidine tag and to insert an in-frame recombinant Tobacco Etch virus (rTEV) protease cleavage site into the NS3 coding sequence. The resulting DNA fragment was cloned into the pET28 protein expression vector (Invitrogen, Carlsbad, Calif.) yielding the p28-N6H-Tev-NS3(181)1b.
BL21AI bacteria (Invitrogen, Carlsbad, Calif.) were transformed with genotype 1b or 3 NS3 expression vectors and used to inoculate a 20 L fermentation vessel (Sartorius BBI System Inc., Bethlehem, Pa.), containing 18 L of fresh 2YT medium supplemented with 50 μg/mL kanamycin. When cell densities reached an OD600 of 1, the temperature of the cultures was reduced from 37° C. to 28° C. and induction was immediately initiated by the addition of 30 μM ZnSO4, 14 mM L-arabinose and 1 mM Isopropyl β-D-thiogalactoside (IPTG) final concentrations. Cells were harvested by centrifugation four hours post-induction and were stored as frozen pellets at −80° C. prior to NS3 protein purification.
Cell pellets were thawed and resuspended at 10 mL/g cells in lysis buffer containing 50 mM tris pH 7.6, 300 mM NaCl, 0.1% 3-[(3-cholamidopropyl)dimethylammonio]-1-propanesulfonate (CHAPS), 5% glycerol, and 2 mM β-mercaptoethanol. Cell suspensions were then sonicated, filtered through cheesecloth, and passed three times through a microfluidizer at 18,000 pounds/in^2. The resulting lysates were centrifuged at 15500 rpm for 45 minutes and supernatants were loaded onto a HisTrap HP column (GE Lifesciences) pre-equilibrated with five volumes of Ni buffer A (50 mM tris pH 7.6, 300 mM NaCl, 0.1% CHAPS, 5% glycerol, 2 mM β-mercaptoethanol, 50 mM imidazole-HCl). Proteins were eluted with a 0-100% gradient of Ni buffer A plus 500 mM imidazole-HCl and fractions were collected and pooled. The HisTrap pool was diluted 1:10 with SP-A buffer (50 mM tris pH 7.0, 10% glycerol, 2 mM dithiothreitol (DTT)) and loaded onto a HiTrap SP-HP column (GE Lifesciences) equilibrated with SP-A buffer. NS3 protease was eluted with a 0-100% SP-B buffer (SP-A buffer plus 1 M NaCl) gradient. Concentrated pools of NS3-containing SP fractions were aliquoted, snap frozen in liquid nitrogen and stored at −80° C.
Purified NS3 protease domain (amino acids 1-181) of the genotype 1b and 3a virus were generated as above.
Reactions were run at room temperature in buffer consisting of 50 mM HEPES, 40% glycerol, 0.05% Triton X-100, 10 mM DTT, and 10% DMSO. The final assay solutions contained 50 pM NS3 genotype 1b protease or 200 pM genotype 3a protease, 20 μM NS4A peptide, and 4 μM substrate (genotype 1 b) or 2 μM substrate (genotype 3a). Inhibitor concentrations varied from 100 nM to 5 pM in 3-fold dilutions, and no-inhibitor controls were included.
Compound dilutions were made in DMSO at 20× final concentration. Reaction mixtures were prepared in 96-well assay plates. A solution of enzyme and NS4A peptide in assay buffer (25 μL volume with both reagents at 4× final concentration) was mixed with 45 μL assay buffer and 5 μL of either inhibitor or DMSO, and pre-incubated at room temperature for 1 hour. The reaction was started by addition of 25 μL substrate solution at 4× final concentration. Plates were mixed vigorously for 5-10 seconds and reactions were allowed to proceed for 90 minutes. fluorescence was measured every 30 s between 90 and 120 minutes reaction time using a Tecan InfiniTe M1000 or PerkinElmer Envision multimode plate reader with an excitation wavelength of 340 nm and an emission wavelength of 490 nm.
To determine the K, rates were plotted as a function of inhibitor concentration, and the data were fit with equation 1 (Morrison, J. F., Biochimica et Biophysica Acta 1969, 185, 269-286) to calculate Ki^app using GraphPad Prism 5.

| SMILES | Ki [nM] |
| --- | --- |
| CC[C@@]12C[C@H]1CCCCCc1nc3ccc(OC)cc3nc1O[C@H]1CN(C(=O)[C@H](C(C)(C)C)NC(=O)O2)[C@H](C(=O)N[C@]2(C(=O)NS(=O)(=O)C3(C)CC3)C[C@H]2C(F)F)[C@@H]1C [Example 43, (1aR,5S,8S,9S,10R,22aR)-5-tert-butyl-N-[(1R,2R)-2-(difluoromethyl)-1-{[(1-methylcyclopropyl)sulfonyl]carbamoyl}cyclopropyl]-1a-ethyl-14-methoxy-9-methyl-3,6-dioxo-1,1a,3,4,5,6,9,10,18,19,20,21,22,22a-tetradecahydro-8H-7,10-methanocyclopropa[18,19][1,10,3,6]dioxadiazacyclononadecino[11,12-b]quinoxaline-8-carboxamide] | 0.06 |
| CC[C@@H]1[C@@H]2CN(C(=O)[C@H](C(C)(C)C)NC(=O)O[C@@H]3C[C@H]3CCCCC(F)(F)c3nc4ccc(OC)cc4nc3O2)[C@@H]1C(=O)N[C@]1(C(=O)NS(=O)(=O)C2(C)CC2)C[C@H]1C(F)F [Example 17, (1aR,5S,8S,9S,10R,22aR)-5-tert-butyl-N-[(1R,2R)-2-(difluoromethyl)-1-{[(1-methylcyclopropyl)sulfonyl]carbamoyl}cyclopropyl]-9-ethyl-18,18-difluoro-14-methoxy-3,6-dioxo-1,1a,3,4,5,6,9,10,18,19,20,21,22,22a-tetradecahydro-8H-7,10-methanocyclopropa[18,19][1,10,3,6]dioxadiazacyclononadecino[11,12-b]quinoxaline-8-carboxamide] | 0.04 |
| CC[C@]12C[C@@H]1CCCCCc1nc3ccc(OC)cc3nc1O[C@H]1CN(C(=O)[C@H](C(C)(C)C)NC(=O)O2)[C@H](C(=O)N[C@]2(C(=O)NS(=O)(=O)C3(C)CC3)C[C@H]2C(F)F)[C@@H]1C [Example 42, (1aS,5S,8S,9S,10R,22aS)-5-tert-butyl-N-[(1R,2R)-2-(difluoromethyl)-1-{[(1-methylcyclopropyl)sulfonyl]carbamoyl}cyclopropyl]-1a-ethyl-14-methoxy-9-methyl-3,6-dioxo-1,1a,3,4,5,6,9,10,18,19,20,21,22,22a-tetradecahydro-8H-7,10-methanocyclopropa[18,19][1,10,3,6]dioxadiazacyclononadecino[11,12-b]quinoxaline-8-carboxamide] | 0.1 |
| COc1ccc2nc3c(nc2c1)O[C@H]1CN(C(=O)[C@H](C(C)(C)C)NC(=O)O[C@]2(C)C[C@H]2CCCCC3(F)F)[C@H](C(=O)N[C@]2(C(=O)NS(=O)(=O)C3(C)CC3)C[C@H]2C(F)F)[C@@H]1C (single isomer, unassigned) [Example 76] | 0.03 |
| COc1ccc2nc3c(nc2c1)O[C@H]1CN(C(=O)[C@H](C(C)(C)C)NC(=O)O[C@@H]2C[C@H]2CCCCC3(F)F)[C@H](C(=O)N[C@]2(C(=O)NS(=O)(=O)C3(C)CC3)C[C@H]2C(F)F)[C@@H]1C [Example 46, (1aR,5S,8S,9S,10R,22aR)-5-tert-butyl-N-[(1R,2R)-2-(difluoromethyl)-1-{[(1-methylcyclopropyl)sulfonyl]carbamoyl}cyclopropyl]-18,18-difluoro-14-methoxy-9-methyl-3,6-dioxo-1,1a,3,4,5,6,9,10,18,19,20,21,22,22a-tetradecahydro-8H-7,10-methanocyclopropa[18,19][1,10,3,6]dioxadiazacyclononadecino[11,12-b]quinoxaline-8-carboxamide] | 0.03 |
| CC[C@@H]1[C@@H]2CN(C(=O)[C@H](C(C)(C)C)NC(=O)O[C@]3(C)CCC[C@H]3CCCCCc3nc4ccc(OC)cc4nc3O2)[C@@H]1C(=O)N[C@]1(C(=O)NS(=O)(=O)C2(C)CC2)C[C@H]1C(F)F [Example 39, (3aR,7S,10S,11S,12R,24aR)-7-tert-butyl-N-[(1R,2R)-2-(difluoromethyl)-1-{[(1-methylcyclopropyl)sulfonyl]carbamoyl}cyclopropyl]-11-ethyl-16-methoxy-3a-methyl-5,8-dioxo-1,2,3,3a,5,6,7,8,11,12,20,21,22,23,24,24a-hexadecahydro-10H-9,12-methanocyclopenta[18,19][1,10,3,6]dioxadiazacyclononadecino[11,12-b]quinoxaline-10-carboxamide] | 0.08 |
| CC[C@@H]1[C@@H]2CN(C(=O)[C@H](C(C)(C)C)NC(=O)O[C@@H]3C[C@H]3CCCCCc3nc4ccc(OC)cc4nc3O2)[C@@H]1C(=O)N[C@]1(C(=O)NS(=O)(=O)C2(C)CC2)C[C@H]1C(F)F [Example 1, (1aR,5S,8S,9S,10R,22aR)-5-tert-butyl-N-[ (1R,2R)-2-(difluoromethyl)-1-{[(1-methylcyclopropyl)sulfonyl]carbamoyl}cyclopropyl]-9-ethyl-14-methoxy-3,6-dioxo-1,1a,3,4,5,6,9,10,18,19,20,21,22,22a-tetradecahydro-8H-7,10-methanocyclopropa[18,19][1,10,3,6]dioxadiazacyclononadecino[11,12-b]quinoxaline-8-carboxamide] | 0.03 |
| CC[C@@H]1[C@@H]2CN(C(=O)[C@H](C(C)(C)C)NC(=O)O[C@@H]3C[C@H]3CCCC3CC3c3nc4ccc(OC)cc4nc3O2)[C@@H]1C(=O)N[C@]1(C(=O)NS(=O)(=O)C2(C)CC2)C[C@H]1C(F)F (stereo partly drawn) [Example 36, (1aR,5S,8S,9S,10R,21aR)-5-tert-butyl-N-[(1R,2R)-2-(difluoromethyl)-1-{[(1-methylcyclopropyl)sulfonyl]carbamoyl}cyclopropyl]-9-ethyl-14-methoxy-3,6-dioxo-1a,3,4,5,6,9,10,17b,18,18a,19,20,21,21a-tetradecahydro-1H,8H-7,10-methanodicyclopropa[13,14:18,19][1,10,3,6]dioxadiazacyclononadecino[11,12-b]quinoxaline-8-carboxamide] | 0.1 |

Same assay, conditions: NS3 protease genotype 1b, 50 pM enzyme, 20 μM NS4A peptide, 4 μM substrate; read-out: Ki 1B

| SMILES | Ki [nM] |
| --- | --- |
| CC[C@@H]1[C@@H]2CN(C(=O)[C@H](C(C)(C)C)NC(=O)O[C@]3(C(F)(F)F)CCCC3CCCCCc3nc4ccc(OC)cc4nc3O2)[C@@H]1C(=O)N[C@]1(C(=O)NS(=O)(=O)C2(C)CC2)C[C@H]1C(F)F (stereo partly drawn) [Example 9, (7S,10S,11S,12R)-7-tert-butyl-N-[(1R,2R)-2-(difluoromethyl)-1-{[(1-methylcyclopropyl)sulfonyl]carbamoyl}cyclopropyl]-11-ethyl-16-methoxy-5,8-dioxo-3aR-(trifluoromethyl)-1,2,3,3a,5,6,7,8,11,12,20,21,22,23,24,24a-hexadecahydro-10H-9,12-methanocyclopenta[18,19][1,10,3,6]dioxadiazacyclononadecino[11,12-b]quinoxaline-10-carboxamide] | 0.15 |
| CC[C@@H]1[C@@H]2CN(C(=O)[C@H](C(C)(C)C)NC(=O)O[C@@]3(C(F)(F)F)CCCC3CCCCCc3nc4ccc(OC)cc4nc3O2)[C@@H]1C(=O)N[C@]1(C(=O)NS(=O)(=O)C2(C)CC2)C[C@H]1C(F)F (stereo partly drawn) [Example 10, (7S,10S,11S,12R)-7-tert-butyl-N-[(1R,2R)-2-(difluoromethyl)-1-{[(1-methylcyclopropyl)sulfonyl]carbamoyl}cyclopropyl]-11-ethyl-16-methoxy-5,8-dioxo-3aS-(trifluoromethyl)-1,2,3,3a,5,6,7,8,11,12,20,21,22,23,24,24a-hexadecahydro-10H-9,12-methanocyclopenta[18,19][1,10,3,6]dioxadiazacyclononadecino[11,12-b]quinoxaline-10-carboxamide] | 0.16 |
